{
  "source": "patent US20090117083A1",
  "about": "“IMMUNOMODULATORY ALKALOIDS” (M N L PHARMA LIMITED, priority 2004, published 2009)",
  "key": {"[1]": {"molecular_target": "rabbit gut mucosa α-D-glucosidase", "assay": "Inhibition of rabbit gut mucosa α-D-glucosidase", "type": "biochemical"}, "α-D-glucosidase": {"molecular_target": "T1, α-D-glucosidase (Saccharomyces cerevisiae, UniProt P53341)", "T1 construct": "purchased Sigma", "T1 sequence (P53341 whole entry)": "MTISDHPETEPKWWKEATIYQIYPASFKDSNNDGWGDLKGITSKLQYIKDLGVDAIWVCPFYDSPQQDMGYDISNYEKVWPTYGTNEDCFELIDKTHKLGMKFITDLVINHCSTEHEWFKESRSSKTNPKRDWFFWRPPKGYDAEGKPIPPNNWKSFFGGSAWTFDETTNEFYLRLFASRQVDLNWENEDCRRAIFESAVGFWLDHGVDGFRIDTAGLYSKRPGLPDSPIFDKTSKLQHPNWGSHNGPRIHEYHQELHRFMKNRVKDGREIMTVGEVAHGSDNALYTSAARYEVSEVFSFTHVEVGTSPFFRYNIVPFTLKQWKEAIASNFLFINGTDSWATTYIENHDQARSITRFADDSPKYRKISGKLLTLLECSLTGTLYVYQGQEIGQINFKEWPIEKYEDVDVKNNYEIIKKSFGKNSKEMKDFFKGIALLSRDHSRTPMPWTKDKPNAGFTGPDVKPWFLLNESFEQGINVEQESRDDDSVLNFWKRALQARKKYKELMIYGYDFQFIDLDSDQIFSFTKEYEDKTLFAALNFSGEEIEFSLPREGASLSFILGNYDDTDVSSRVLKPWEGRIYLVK", "assay": "Glycosidase inhibition (p-nitrophenyl substrate): α-D-glucosidase, yeast", "type": "biochemical, Saccharomyces cerevisiae (Baker's yeast)", "procedure,_shortened": "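Absorbance at 405 nm of released p-nitrophenol gives activity after a glycine pH 10.4 stop timed to the exponential phase. Incubations run at 20° C in citrate/phosphate buffer at optimum pH with 3.57 mM final p-nitrophenyl substrate.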"}, "[2]": {"conditions": "Group 1: 15 mg/kg i.p. daily, day 0"}, "[3]": {"conditions": "Group 1: 15 mg/kg i.p. daily, day 1"}, "[4]": {"conditions": "Group 1: 15 mg/kg i.p. daily, day 2"}, "[5]": {"conditions": "Group 1: 15 mg/kg i.p. daily, day 3"}, "[6]": {"conditions": "Group 1: 15 mg/kg i.p. daily, day 4"}, "[7]": {"conditions": "Group 1: 15 mg/kg i.p. daily, day 5"}, "[8]": {"conditions": "Group 1: 15 mg/kg i.p. daily, day 6"}, "[9]": {"conditions": "Group 1: 15 mg/kg i.p. daily, day 7"}, "[10]": {"conditions": "Group 1: 15 mg/kg i.p. daily, day 8"}, "[11]": {"conditions": "Group 1: 15 mg/kg i.p. daily, day −2"}, "[12]": {"conditions": "Group 2: 150 mg/kg i.p. daily, day 0"}, "[13]": {"conditions": "Group 2: 150 mg/kg i.p. daily, day 1"}, "[14]": {"conditions": "Group 2: 150 mg/kg i.p. daily, day 2"}, "[15]": {"conditions": "Group 2: 150 mg/kg i.p. daily, day 3"}, "[16]": {"conditions": "Group 2: 150 mg/kg i.p. daily, day 4"}, "[17]": {"conditions": "Group 2: 150 mg/kg i.p. daily, day 5"}, "[18]": {"conditions": "Group 2: 150 mg/kg i.p. daily, day 6"}, "[19]": {"conditions": "Group 2: 150 mg/kg i.p. daily, day 7"}, "[20]": {"conditions": "Group 2: 150 mg/kg i.p. daily, day 8"}, "[21]": {"conditions": "Group 2: 150 mg/kg i.p. daily, day −2"}},
  "note": "Where two headings read alike, the source gives them in different places.",
  "data": [
    {"smiles": "OC[C@@H]1[C@@H](O)[C@H](O)[C@H]2[C@H](O)[C@@H](O)CN21", "note": "[casuarine (8)]", "values": [
      {"measurement": "IC50", "setting": "[1]", "value": 210, "unit": "µM"},
      {"measurement": "Ki", "setting": "α-D-glucosidase", "value": 217, "unit": "µM"},
      {"measurement": "inhibition at 1000 µg/mL", "setting": "α-D-glucosidase; 1 mg/ml, read-out: % inhibition, gluc (yeast)", "value": 64, "unit": "%"},
      {"measurement": "Group mean weight", "setting": "HSV-1 (SC16); [2]", "value": 16.7, "unit": "g"},
      {"measurement": "Weight (% change)", "setting": "HSV-1 (SC16); [2]", "value": 3.1, "unit": "%"},
      {"measurement": "Group mean weight", "setting": "HSV-1 (SC16); [3]", "value": 17.1, "unit": "g"},
      {"measurement": "Weight (% change)", "setting": "HSV-1 (SC16); [3]", "value": 5.6, "unit": "%"},
      {"measurement": "Group mean weight", "setting": "HSV-1 (SC16); [4]", "value": 17.1, "unit": "g"},
      {"measurement": "Weight (% change)", "setting": "HSV-1 (SC16); [4]", "value": 5.6, "unit": "%"},
      {"measurement": "Group mean weight", "setting": "HSV-1 (SC16); [5]", "value": 17.6, "unit": "g"},
      {"measurement": "Weight (% change)", "setting": "HSV-1 (SC16); [5]", "value": 8.6, "unit": "%"},
      {"measurement": "Group mean weight", "setting": "HSV-1 (SC16); [6]", "value": 17.4, "unit": "g"},
      {"measurement": "Weight (% change)", "setting": "HSV-1 (SC16); [6]", "value": 7.4, "unit": "%"},
      {"measurement": "Group mean weight", "setting": "HSV-1 (SC16); [7]", "value": 17.6, "unit": "g"},
      {"measurement": "Weight (% change)", "setting": "HSV-1 (SC16); [7]", "value": 8.6, "unit": "%"},
      {"measurement": "Group mean weight", "setting": "HSV-1 (SC16); [8]", "value": 17.7, "unit": "g"},
      {"measurement": "Weight (% change)", "setting": "HSV-1 (SC16); [8]", "value": 9.2, "unit": "%"},
      {"measurement": "Group mean weight", "setting": "HSV-1 (SC16); [9]", "value": 17.4, "unit": "g"},
      {"measurement": "Weight (% change)", "setting": "HSV-1 (SC16); [9]", "value": 7.4, "unit": "%"},
      {"measurement": "Group mean weight", "setting": "HSV-1 (SC16); [10]", "value": 17.7, "unit": "g"},
      {"measurement": "Weight (% change)", "setting": "HSV-1 (SC16); [10]", "value": 9.3, "unit": "%"},
      {"measurement": "Group mean weight", "setting": "HSV-1 (SC16); [11]", "value": 16.2, "unit": "g"},
      {"measurement": "Weight (% change)", "setting": "HSV-1 (SC16); [11]", "value": 0, "unit": "%"},
      {"measurement": "Group mean weight", "setting": "HSV-1 (SC16); [12]", "value": 16, "unit": "g"},
      {"measurement": "Weight (% change)", "setting": "HSV-1 (SC16); [12]", "value": 3.2, "unit": "%"},
      {"measurement": "Group mean weight", "setting": "HSV-1 (SC16); [13]", "value": 16.4, "unit": "g"},
      {"measurement": "Weight (% change)", "setting": "HSV-1 (SC16); [13]", "value": 5.8, "unit": "%"},
      {"measurement": "Group mean weight", "setting": "HSV-1 (SC16); [14]", "value": 16.3, "unit": "g"},
      {"measurement": "Weight (% change)", "setting": "HSV-1 (SC16); [14]", "value": 5.2, "unit": "%"},
      {"measurement": "Group mean weight", "setting": "HSV-1 (SC16); [15]", "value": 16.6, "unit": "g"},
      {"measurement": "Weight (% change)", "setting": "HSV-1 (SC16); [15]", "value": 7.1, "unit": "%"},
      {"measurement": "Group mean weight", "setting": "HSV-1 (SC16); [16]", "value": 16.4, "unit": "g"},
      {"measurement": "Weight (% change)", "setting": "HSV-1 (SC16); [16]", "value": 5.8, "unit": "%"},
      {"measurement": "Group mean weight", "setting": "HSV-1 (SC16); [17]", "value": 16.8, "unit": "g"},
      {"measurement": "Weight (% change)", "setting": "HSV-1 (SC16); [17]", "value": 8.4, "unit": "%"},
      {"measurement": "Group mean weight", "setting": "HSV-1 (SC16); [18]", "value": 17, "unit": "g"},
      {"measurement": "Weight (% change)", "setting": "HSV-1 (SC16); [18]", "value": 9.7, "unit": "%"},
      {"measurement": "Group mean weight", "setting": "HSV-1 (SC16); [19]", "value": 16.7, "unit": "g"},
      {"measurement": "Weight (% change)", "setting": "HSV-1 (SC16); [19]", "value": 7.7, "unit": "%"},
      {"measurement": "Group mean weight", "setting": "HSV-1 (SC16); [20]", "value": 16.8, "unit": "g"},
      {"measurement": "Weight (% change)", "setting": "HSV-1 (SC16); [20]", "value": 8.4, "unit": "%"},
      {"measurement": "Group mean weight", "setting": "HSV-1 (SC16); [21]", "value": 15.5, "unit": "g"},
      {"measurement": "Weight (% change)", "setting": "HSV-1 (SC16); [21]", "value": 0, "unit": "%"},
      {"measurement": "ear thickness response", "setting": "HSV-1 (SC16); versus infected untreated group", "value": "produced a reduction in ear thickness"}
    ]}
  ]
}
